Test results: patent US10836757B1, “Polymorphic forms of metopimazine” (Neurogastrx, Inc., priority 2020, dated 2020)
Entries after “also recorded” stand apart in the source; their conditions may differ. Structures can show the parent of a compound that is named as a salt. Where two headings read alike, the source gives them in different places.

How the values were obtained:
[1] = administration before and after a high fat breakfast; cited from earlier work
[2] = Clinical comparative pharmacokinetic study, 3-period cross-over, single oral doses, plasma samples; type: in vivo, human; conditions: for AUC(0-inf) / Cmax / Tmax: human, po, 15 mg; for AUC(0-inf): read-out: AUC0-inf Geometric Least Square Mean (GLSM); for Cmax: read-out: Cmax Geometric Least Square Mean (GLSM)
Experimental: A clinical comparative pharmacokinetic study was performed to understand the pharmacokinetic profile of metopimazine mesylate Crystal Form A in comparison to the free base of metopimazine. This study was as a 3-period, cross-over design with 3 administrations of single doses: oral formulation of metopimazine mesylate Crystal Form A fasting, oral formulation of metopimazine mesylate Crystal Form A after a high-fat breakfast, and oral formulation of metopimazine free base fasting, with a wash-out period of 48 hours between each administration. Fifteen subjects were enrolled and received each of the 3 treatment. Plasma samples from each subject were analyzed for various pharmacokinetic parameters. Mixed model repeated measures (MMRM) analysis was performed on each sample.
The second objective of this study was to compare the pharmacokinetics of metopimazine mesylate Crystal Form A administered as an oral administration of a single dose of 15 mg orally in 15 human subjects either in a fasted state or after a high fat breakfast. Plasma samples from each subject were analyzed for various pharmacokinetic parameters. […] Both Cmax and AUC are well within the 90% confidence interval.

[3] = single oral dose 15 mg, n = 15, fasted, plasma
[4] = 15 mg oral, n = 15, 90% confidence interval
[5] = 15 mg oral, n = 15, 90% confidence interval, *Bioequivalence
[6] = plasma, 15 mg oral, n = 15, fasted
[7] = plasma, 15 mg oral, n = 15, fed high fat breakfast (1030 kcal, 16% protein, 61% fat, 23% carbohydrate)

| Tmax, Median [2, 3] | Tmax, Min [2, 3] | Reduction in Cmax when administered with food ([2]; 15 mg oral, high fat breakfast vs fasted) | Geometric mean difference in Cmax, high fat breakfast vs fasted ([2]; 15 mg oral, n = 15) | Cmax ratio fasted vs fed, Lower CI % [2, 4] | Cmax ratio fasted vs fed, Upper CI % [2, 4] | AUC0-inf ratio fasted vs fed, Lower CI % [2, 5] | AUC0-inf ratio fasted vs fed, Upper CI % [2, 5] | AUC(0-inf) [2, 6] | Cmax [2, 6] | AUC(0-inf) [2, 7] | Cmax [2, 7] | Tmax ([2]; plasma, single oral dose 15 mg, n = 15, fasted, plasma, read-out: Tmax, Mean) | Tmax ([2]; plasma, single oral dose 15 mg, n = 15, fasted, plasma, read-out: Tmax, Median) | SMILES | Reduction in AUC (food effect) [1] | Reduction in Cmax (food effect) [1] | Change in AUC, high fat breakfast vs fasted ([2]; 15 mg oral, n = 15) |
| --- | --- | --- | --- | --- | --- | --- | --- | --- | --- | --- | --- | --- | --- | --- | --- | --- | --- |
| 60 min | 30 min | – | – | – | – | – | – | – | – | – | – | – | – | CS(=O)(=O)c1ccc2c(c1)N(CCCN1CCC(C(N)=O)CC1)c1ccccc1S2 [Metopimazine free base, 1-(3-(2-(methylsulfonyl)-10H-phenothiazin-10-yl)propyl)piperidine-4-carboxamide, reference compound] | 23% | 58% | – |
| – | – | approximately 15% | slightly but significantly lower | 63.82% | 110.75% | 86.00* % | 101.93* % | 0.064 µg·h/mL | 0.0182 µg/mL | 0.0599 µg·h/mL | 0.0153 µg/mL | 52.2 min | 45 min | CS(=O)(=O)c1ccc2c(c1)N(CCCN1CCC(C(N)=O)CC1)c1ccccc1S2 [Metopimazine mesylate Crystal Form A, 1-(3-(2-(methylsulfonyl)-10H-phenothiazin-10-yl)propyl)piperidine-4-carboxamide methanesulfonic acid] | – | – | not statistical difference; also recorded: no notable change |
